“Also recorded” adds a separate entry of the source.
Assays:
Assay type in all cases: cell-based, human
[1] = test system: p44/42 MAPK (ERK1/2) in CLL B cells; assay: Immunoblot of ERK1/2 phosphorylation in CLL B cells; conditions: SDF-1α 200 ng/ml; for induction of phosphorylation of ERK1/2: 3 or 10 minutes, rhBAFF 50 ng/ml
Description: (§1) Cell lysates were prepared with RIPA buffer (10 mM Tris (pH 7.4), 150 mM NaCl, 1% Triton x 100, 1% deoxycholate, 0.1% SDS, 5 mM EDTA), containing 1 mM PMSF, 0.28 TIU/ml aprotinin, 50 μg/ml leupeptin, 1 mM benzamidine, 0.7 μg/ml pepstatin. Lysates were normalized for total protein (20 μg), subjected to SDS-PAGE (4-15% gradient gels, Bio-Rad, Hercules, Calif.) and immunoblot assay. We incubated the blots with secondary antibodies that were conjugated with horseradish peroxidase. Blots then were prepared for enhanced chemiluminescence (ECL) detection system (Amersham, Little Chalfont, Buckinghamshire, UK) and subsequent autoradiography with Super RX film (Fuji, Tokyo, Japan). The mouse mAb against APRIL (APRIL8) was from Alexis Biochemicals. The mouse mAb against inhibitor of kappa B-α (IκκBα was from Imgenex (San Diego, Calif.). The antibodies against anti-phosho-MAP kinase Erk1/2 and anti-MAP kinase Erk1/2-CT were purchased from Upstate Biotechnology. Antibodies against AKT or phospho-AKT (Ser473) were from Cell Signaling (Beverly, Mass.). Rabbit polyclonal antibodies (Mcl-1, Bcl-2, and Bax) were raised against synthetic peptides.21 Also primary antibodies included β-actin (Sigma Immunochemicals, St Louis, Mo.). Anti-p52 and anti-p65 antibodies were purchased from Upstate Biotechnology.

AKT in CLL B cells = assay: Immunoblot of AKT (Ser473) phosphorylation in CLL B cells; conditions: SDF-1α 200 ng/ml; for induction of phosphorylation/activation of AKT (Ser473): 3 or 10 minutes, rhBAFF 50 ng/ml
Description: as §1

[2] = test system: canonical NF-κB1 pathway in CLL B cells; assay: Immunoblot of canonical NF-κB1 pathway activation (IκBα degradation/phosphorylation, p65 nuclear translocation) in CLL B cells; conditions: concentrations that promote CLL cell survival; rhBAFF 50 ng/ml, rhAPRIL 500 ng/ml
Description: as §1
For fractionation experiments, cells were collected by centrifugation and washed with PBS. The cell pellet containing 5×10^6 cells was suspended in 100 μl of hypotonic buffer (50 mM Tris (pH7.4), 5 mM EDTA, 10 mM NaCl, 0.05% NP-40, 1 mM PMSF, 10 μg/ml Aprotinin, 10 μg/ml Leupeptin, 10 μg/ml Pepstatin, 10 mM β-Glycerophosphate, 1 mM Na-Vanadate, 1 mM NaF). After 10 minutes the lysate was spun and the supernatant was collected as cytoplasmic lysates. The pellet was washed 5 times in hypotonic buffer containing 0.1% NP-40. The remaining pellet was suspended in 100 μl RIPA buffer containing protease and phosphatase inhibitors. After an appropriate amount of 3× sample buffer (200 mM Tris (pH 6.8), 30 mM EDTA, 30% Glycerol, 6% SDS) was added, the sample was boiled for 10 minutes, spun for 10 minutes and the supernatant was recovered as nucleus lysates. Anti-NF kappa B p52 and p65 were purchased from Upstate Biotechnology. Anti-SP-1 was purchased from Santa Cruz Biotechnology (Santa Cruz, Calif.).
Cell lysates were prepared with radioimmunoprecipitation assay (RIPA) buffer (10 mM Tris [pH 7.4], 150 mM NaCl, 1% Triton X-100, 0.1% deoxycholate, 0.1% SDS, 5 mM EDTA), containing 1× complete protease inhibitor cocktail (Roche diagnostics), 1 mM sodium fluoride (NaF), and 1 mM sodium vanadate (Na3VO4). Lysates were normalized for total protein (25 μg) and subjected to SDS-PAGE (4-15% gradient gels, Bio-Rad, Hercules, Calif.) and immunoblot assay. We incubated the blots with secondary antibodies that were conjugated with horseradish peroxidase. Blots then were prepared for enhanced chemiluminescence (ECL) detection system (Amersham, Little Chalfont, United Kingdom) and subsequent autoradiography with Super RX film (Fuji, Tokyo, Japan).
For fractionation experiments, cells were collected by centrifugation and washed with PBS. The cell pellet containing 5×10^6 cells was suspended in 100 μl of hypotonic buffer (50 mM Tris [pH7.4], 5 mM EDTA, 10 mM NaCl, 0.05% Nonidet P40 [NP-40]), containing 1× complete protease inhibitor cocktail, 1 mM NaF, and 1 mM Na3VO4. After 10 minutes, the lysate was spun and the supernatant was collected as cytoplasmic lysates. […]

Mcl-1 in CLL B cells = assay: Immunoblot of Mcl-1 expression in CLL B cells; conditions: short-term culture of isolated CLL B cells
Description: as §1

[3] = test system: NF-κB2/p100 pathway in CLL B cells; assay: Immunoblot of alternative NF-κB2 pathway activation (p100 to p52, p52 nuclear translocation) in CLL B cells; conditions: concentrations that promote CLL cell survival; rhBAFF 50 ng/ml, rhAPRIL 500 ng/ml, 24 hours
Description: as §1
For fractionation experiments, cells were collected by centrifugation and washed with PBS. The cell pellet containing 5×10^6 cells was suspended in 100 μl of hypotonic buffer (50 mM Tris (pH7.4), 5 mM EDTA, 10 mM NaCl, 0.05% NP-40, 1 mM PMSF, 10 μg/ml Aprotinin, 10 μg/ml Leupeptin, 10 μg/ml Pepstatin, 10 mM β-Glycerophosphate, 1 mM Na-Vanadate, 1 mM NaF). After 10 minutes the lysate was spun and the supernatant was collected as cytoplasmic lysates. The pellet was washed 5 times in hypotonic buffer containing 0.1% NP-40. The remaining pellet was suspended in 100 μl RIPA buffer containing protease and phosphatase inhibitors. […]

[4] = test system: Bcl-2, Bax, Bcl-xL in CLL B cells; assay: Immunoblot of Bcl-2, Bax, Bcl-xL expression in CLL B cells; conditions: short-term culture of isolated CLL B cells
Description: as §1

[5] = test system: NF-κB1 binding activity in CLL cells; assay: Electrophoretic mobility shift assay of NF-κB DNA binding in nuclear extracts of CLL cells; conditions: rhBAFF 50 ng/ml or rhAPRIL 500 ng/ml, 24 hours
Description: Nuclear proteins were extracted using a nuclear extraction kit (Pierce, Rockford, Ill.) in presence of 1× complete protease inhibitor cocktail (Roche diagnostics). Total protein was measured using a modified Bradford test (Bio-Rad, Hercules, Calif.). 2 μg of nuclear protein extracts were incubated on ice for 30 min with antibodies to p50 and p65 (Santa Cruz Biotechnology). Later, a radiolabeled double stranded probe that encompassed the κB1 site was added, followed by incubation at room temperature for 30 min. Samples were loaded on a 6% acrylamide gel and run at 150 volts for three and a half hours.

[6] = test system: isolated CD19+ CLL B cells; assay: Viability of isolated CLL B cells cultured without NLC (DiOC6/PI flow cytometry); conditions: rhBAFF 50 ng/ml, rhAPRIL 500 ng/ml; samples of 3 patients
Description: (§2) Freshly thawed CLL B cells were cultured at the concentration of 1×10^6/ml under various conditions. Determination of CLL cell viability in this study was based on the analysis of mitochondrial transmembrane potential (Δψm) using 3,3′-dehexyloxacarbocyamine iodine (DiOC6) and cell membrane permeability to PI, as described.22 For viability assays, 100 μl of the cell culture was collected at the indicated time points and transferred to polypropylene tubes containing 100 μl of 60 nmol/l DiOC6 (Molecular Probes) and 10 μg/ml PI in FACS buffer. The cells then were incubated at 37° C. for 15 minutes and analyzed within 30 minutes by flow cytometry using a FACSCalibur (Becton Dickinson). Fluorescence was recorded at 525 nm (FL-1) for DiOC6 and at 600 nm (FL-3) for PI.

transfected CLL cells = assay: Viability of CLL cells transfected with SR-IκBα or control vector (Amaxa nucleofection); conditions: rhBAFF 50 ng/ml or rhAPRIL 500 ng/ml for 24 hours, added four hours after transfection
Description: as §2, with “of 1×10^6/mL” for “of 1×10^6/ml”, “as described.” for “as described.22”, “of 80” for “of 60”, “and 2” for “and 10”
CLL cells were transfected using the Amaxa nucleofection technology (Amaxa). Cells were resuspended in solution from human B cell nucleofector kit, also available as part of Amaxa cell optimization kit, according to the manufacturer's instructions. Briefly, 100 μl of 5×10^6 cell suspension mixed with 5 μg cDNA was transferred to the provided cuvette and nucleofected with an Amaxa Nucleofector apparatus (Amaxa). Cells were transfected using the U-15 pulsing parameter and immediately transferred into wells containing 37° C. pre-warmed culture medium in 12-well plates. After transfection, cells were cultured from 4 to 48 hours before analyzing by FACS. pmaxGFP was used to gauge transfection efficiency.

[7] = 3 minutes, 4F at 50 nM or 500 nM

4F-benzoyl-TE14011 [reference compound] was tested. Which “block of SDF-1α-induced phosphorylation of ERK1/2” value [1, 7] did it give?
The value was “could be blocked”.

And the “block of SDF-1α-induced phosphorylation of AKT at Ser473” value (AKT in CLL B cells; [7])?
The value was “could be blocked”.

How did the “activation of classical/canonical NF-κB pathway (IκBα degradation, p65 translocation to nucleus)” value [2] turn out when SDF-1α was run?
The value was “did not have this activity”.

And the “induction of Mcl-1 expression in CLL B cells” value (shortened to “induction of Mcl-1 expression”) (Mcl-1 in CLL B cells)?
The value was “could not induce isolated CLL B cells to express higher levels of Mcl-1”.

And the “induction of phosphorylation of ERK1/2” value [1]?
Its value is “induced phosphorylation of ERK1/2”.

What about the “activation of NF-κB2 (processing of p100 to p52, translocation of p52 to the nucleus)” value (“activation of NF-κB2” for short) [3] of the same substance?
The value was “did not observe activation of NF-κB2”.

And the “changes in levels of Bcl-2, Bax, or Bcl-xL” value [4]?
The value was “did not observe significant changes”.

What about the “induction of phosphorylation/activation of AKT (Ser473)” value (AKT in CLL B cells) of the same substance?
Its value is “induced phosphorylation of AKT at Ser473”.

How did the “activation of classical/canonical NF-κB pathway (IκBα degradation, p65 translocation to nucleus)” value [2] turn out when “rhAPRIL: recombinant human a proliferation-inducing ligand, purchased from Alexis Biochemicals” was run?
Its value is “induced degradation of the inhibitor of kappa B (IκBα) and translocation of p65 to the nuclear fraction; also recorded: induced translocation of p65 to the nucleus”.

And the “induction of Mcl-1 expression” value (Mcl-1 in CLL B cells)?
Its value is “induced to express increased levels of Mcl-1”.

What about the “induction of phosphorylation of ERK1/2” value [1] of the same substance?
Its value is “could not induce phosphorylation of p44/42 mitogen-activated phosphokinase (MAPK, ERK1/2)”.

And the “NF-κB consensus motif binding proteins in nuclear extracts (EMSA)” value [5]?
The value was “increased amounts of proteins capable of binding NF-κB consensus motifs”.

And the “activation of NF-κB2” value [3]?
The value was “did not observe activation of NF-κB2; also recorded: did not observe translocation of p52 to the nucleus”.

And the “induction of phosphorylation/activation of AKT (Ser473)” value (AKT in CLL B cells)?
The value was “could not induce”.

And the “viability of isolated CLL cells cultured without NLC versus control” value [6]?
Its value is “significant greater than that of control treated CLL cells; also recorded: significantly improved the viability of CLL cells”.

What about the “viability of CLL cells transfected with SR-IκBα” value (transfected CLL cells) of the same substance?
The value was “had no effect on CLL cells transfected with SR-IκBα”.

And the “viability of CLL cells transfected with control expression plasmid” value (transfected CLL cells)?
Its value is “significantly enhanced the viability of the cells transfected with the control expression plasmid”.

Which “activation of classical/canonical NF-κB pathway (IκBα degradation, p65 translocation to nucleus)” value [2] does the source give for “rhBAFF: recombinant human B cell-activating factor of the TNF family” here?
Its value is “induced degradation of the inhibitor of kappa B (IκBα) and translocation of p65 to the nuclear fraction; also recorded: induced translocation of p65 to the nucleus”.

And the “induction of Mcl-1 expression” value (Mcl-1 in CLL B cells)?
The value was “induced to express increased levels of Mcl-1”.

What about the “induction of phosphorylation of ERK1/2” value [1] of the same substance?
The value was “could not induce phosphorylation of p44/42 mitogen-activated phosphokinase (MAPK, ERK1/2)”.

And the “NF-κB consensus motif binding proteins in nuclear extracts (EMSA)” value [5]?
The value was “increased amounts of proteins capable of binding NF-κB consensus motifs”.

What about the “activation of NF-κB2” value [3] of the same substance?
Its value is “could induce activation of NF-κB2; also recorded: could induce translocation of p52 to the nucleus”.

And the “changes in levels of Bcl-2, Bax, or Bcl-xL” value [4]?
Its value is “did not observe significant changes”.

And the “induction of phosphorylation/activation of AKT (Ser473)” value (AKT in CLL B cells)?
The value was “could not induce”.

And the “viability of isolated CLL cells cultured without NLC versus control” value [6]?
Its value is “significant greater than that of control treated CLL cells; also recorded: significantly improved the viability of CLL cells”.

And the “viability of CLL cells transfected with SR-IκBα” value (transfected CLL cells)?
The value was “had no effect on CLL cells transfected with SR-IκBα”.

And the “viability of CLL cells transfected with control expression plasmid” value (transfected CLL cells)?
Its value is “significantly enhanced the viability of the cells transfected with the control expression plasmid”.

From patent publication US20090304674A1, “METHODS FOR TREATING DISEASE BY REGULATING CLL CELL SURVIVAL” (priority 2005, published 2009)
